Results taken from ChEMBL document CHEMBL3046849, “Composition of essential oil of Chinese Chenopodium ambrosioides and insecticidal activity against maize weevil, Sitophilus zeamais” (2011).
≈ marks a conversion by molar mass, not a printed value.

Assays:
Assay type in all cases: functional
Sitophilus zeamais [1] = experiment: Contact toxicity against adult Sitophilus zeamais assessed as mortality applied to dorsal thorax of insect measured daily for 1 week; conditions: 168 h
Sitophilus zeamais [2] = experiment: Insecticidal activity against adult Sitophilus zeamais assessed as mortality measured daily for 1 week by fumigation assay; conditions: 168 h
Sitophilus zeamais [3] = experiment: Insecticidal activity against adult Sitophilus zeamais assessed as mortality after 24 hr by fumigation assay

Row | Structure (SMILES) | LD50 (Sitophilus zeamais [1]) [mg/kg] | LC50 (Sitophilus zeamais [2]) [µg/mL] | LC50 (Sitophilus zeamais [3]) [µg/mL]
1 | CC1=CC2C(CC1)C2(C)C (configuration not stated) [2-CARENE] | 3.55 | 14 (≈ 103 µM) | –
2 | CC1=CC=C(C(C)C)CC1 [ALPHA-TERPINENE] | 3.47 | 5.46 (≈ 40.1 µM) | –
3 | CBr [BROMOMETHANE] | – | – | 0.67 (≈ 7.06 µM)
4 | CC(C)[C@]12CC[C@@]3(C)O[C@H]3[C@H]1O2 [ISOASCARIDOLE] | 2.16 | 2.45 (≈ 14.6 µM) | –
5 | P [PHOSPHINE] | – | – | 0.006 (≈ 0.176 µM)
6 | CC(C)[C@@]12C=C[C@@](C)(CC1)OO2 [(Z)-ASCARIDOLE] | 0.86 | 0.84 (≈ 4.99 µM) | –
7 | Cc1ccc(C(C)C)cc1 [P-CYMENE] | > 23.2 | 23.3 (≈ 173 µM) | –
